Among the data in US6867299B2, “Oxamide IMPDH inhibitors” (Hoffmann-La Roche Inc., priority 2000, dated 2005) are IC50 values, retold here.

By IC50 is commonly meant the concentration that gives 50% inhibition.

Where a name gives a salt, the structure may show the parent alone.

For the experiment, the target named is IMPDH (human type II) (Homo sapiens, UniProt P12268). Kind of experiment: IMPDH inhibitor assay, spectrophotometric (NADH formation at 340 nm). It counts as biochemical. To be noted: 37° C., pH8.0, 2.5% DMSO, 10 concentrations of inhibitor. The method, then:
IMPDH activity can be assayed using an adaptation of the method reported by Carr [S. Carr et al., J. Biol. Chem. 268, p.27286 (1993)], the disclosure of which is herein incorporated by reference. IMPDH activity was measured spectrophotometrically, by monitoring the increase in absorbance at 340 nm due to the formation of NADH (ε340 is 6220 M−1 cm−1) from the reduction of NAD. The IMPDH reaction mixture contained 0.1M Tris pH8.0, 0.1M KCl, 1 mM DTT, 3 mM EDTA, […]. The reaction was initiated by the addition of IMPDH (human type II) to a final concentration in the assay of between 1 nM and 5 nM with respect to the IMPDH tetramer. The initial rate is measured by following the linear increase in absorbance at 340 nm at 37° C. for 45 minutes. The reading was conducted using a Spectromax 190 (Molecular Devices) spectrophotometer in a 96 well plate format with a final reaction volume of 200 μl.
For inhibitor assay analysis, the compound is dissolved in DMSO to a final concentration of 10 mM and added to the initial reaction mixture as 5 μl to give final DMSO concentration of 2.5%. The enzyme reaction is initiated by the addition of IMPDH and the initial rates measured as above. IC50 determinations are made by measuring the initial rates in the presence of 10 concentrations of inhibitor and fitting the data using the 4 parameter curve fit from the Softmax pro software (Molecular Devices).
As for `COc1cc(NC(=O)C(=O)Nc2cccc(CNC(=O)OC(C)C)c2)ccc1-c1cnco1` [Isopropyl [3-[[[3-methoxy-4-(5-oxazolyl)anilino]oxalyl]amino]benzyl]carbamate], the IC50 came to 33 nM.
The same measure for `COC(=O)NCc1cccc(NC(=O)C(=O)Nc2ccc(-c3cnco3)c(OC)c2)c1` [Methyl [3-[[[3-methoxy-4-(5-oxazolyl)anilino]oxalyl]amino]benzyl] carbamate]: 121 nM; for `COc1cc(NC(=O)C(=O)NC(C)(C)Cc2ccccc2)ccc1-c1cnco1` [N-(1,1-Dimethyl-2-phenylethyl)-N′-[3-methoxy-4-(5-oxazolyl)phenyl]oxalamide]: 15 nM; for `C#CC(C)(C)NC(=O)C(=O)Nc1ccc(-c2cnco2)c(OC)c1` [N-(1,1-Dimethylpropargyl)-N′-[3-methoxy-4-(5-oxazolyl)phenyl]oxalamide]: 48 nM.
On to `CCC(C)(C)NC(=O)C(=O)Nc1ccc(-c2cnco2)c(OC)c1` [N-(1,1-Dimethylpropyl)-N′-[3-methoxy-4-(5-oxazolyl)phenyl]oxalamide], for which the IC50 came to 31 nM.
Take `COc1cc(NC(=O)C(=O)NC(C)(C)CN)ccc1-c1cnco1` [N-(2-Amino-1,1-dimethylethyl)-N′-[3-methoxy-4-(5-oxazolyl)kphenyl]oxalamide trifluoroacetate (1:1)]: the IC50 came out at 97 nM.
Under `COc1cc(NC(=O)C(=O)NC(C)(C)CN(C)C)ccc1-c1cnco1` [N-(2-Dimethylamino-1,1-dimethylethyl)-N′-[3-methoxy-4-(5-oxazolyl)phenyl]oxalamide hydrochloride (1:1)] stands 170 nM.
In turn, `COc1cc(NC(=O)C(=O)NC(C)(C)CO)ccc1-c1cnco1` [N-(2-Hydroxy-1,1-dimethylethyl)-N′-[3-methoxy-4-(5-oxazolyl)phenyl]oxalamide] displayed an IC50 of 72 nM.
Consider `COc1cc(NC(=O)C(=O)Nc2cccc(CN)c2)ccc1-c1cnco1` [N-[3-(Aminomethyl)phenyl]-N′-[3-methoxy-4-(5-oxazolyl)phenyl]oxalamide trifluoroacetate (1:1)], for which the IC50 came to 233 nM.
The same measure for `COc1cc(NC(=O)C(=O)Nc2cccc(CNC(=O)c3ccccc3)c2)ccc1-c1cnco1` [N-[3-(Benzamidomethyl)phenyl]-N′-[3-methoxy-4-(5-oxazolyl)phenyl]oxalamide]: 13 nM; for `COc1cc(NC(=O)C(=O)NC(C)(C)CC(C)(C)C)ccc1-c1cnco1` [N-[3-Methoxy-4-(5-oxazolyl)phenyl]-N′-(1,1,3,3-tetramethyl-butyl)oxalamide]: 34 nM.
`COc1cc(NC(=O)C(=O)NC(C)(C)c2ccccc2)ccc1-c1cnco1` [N-[3-Methoxy-4-(5-oxazolyl)phenyl]-N′-(1-methyl-1-phenylethyl)oxalamide] came in with an IC50 of 30 nM.
In turn, `COc1cc(NC(=O)C(=O)Nc2cccnc2)ccc1-c1cnco1` [N-[3-Methoxy-4-(5-oxazolyl)phenyl]-N′-(3-pyridyl)oxalamide] returned an IC50 of 277 nM.
Take `COc1cc(NC(=O)C(=O)NC(C)(C)Cc2ccc([N+](=O)[O-])cc2)ccc1-c1cnco1` [N-[3-Methoxy-4-(5-oxazolyl)phenyl]-N′-[1,1-dimethyl-2-(4-nitrophenyl)ethyl]oxalamide]: inhibition was half-maximal at 10 nM (IC50).
The same measure for `CNC(=O)C(C)(C)NC(=O)C(=O)Nc1ccc(-c2cnco2)c(OC)c1` [N-[3-Methoxy-4-(5-oxazolyl)phenyl]-N′-[1-methyl-1-(methylcarbamoyl)ethyl]oxalamide]: 199 nM; for `COc1cc(NC(=O)C(=O)Nc2cccc(CC(=O)Nc3ccccc3)c2)ccc1-c1cnco1` [N-[3-Methoxy-4-(5-oxazolyl)phenyl]-N′-[3-[(phenylcarbamoyl)methyl]phenyl]oxalamide]: 35 nM.
As to `COc1cc(NC(=O)C(=O)Nc2cccc(CNS(=O)(=O)c3ccccc3)c2)ccc1-c1cnco1` [N-[3-[(Benzenesulfonamido)methyl]phenyl]-N′-[3-methoxy-4-(5-oxazolyl)phenyl]oxalamide], inhibition was half-maximal at 125 nM (IC50).
The compound `CC(C)(C)NC(=O)C(=O)Nc1ccc(-c2cnco2)c(Cl)c1` [N-tert-Butyl-N′-[3-chloro-4-(5-oxazolyl)phenyl]oxalamide] yielded an IC50 of 169 nM.
Under `COc1cc(NC(=O)C(=O)NC(C)(C)C)ccc1-c1cocn1` [N-tert-Butyl-N′-[3-methoxy-4-(4-oxazolyl)phenyl]oxalamide] stands 460 nM; under `COc1cc(NC(=O)C(=O)NC(C)(C)C)ccc1-c1cnco1` [N-tert-Butyl-N′-[3-methoxy-4-(5-oxazolyl)phenyl]oxalamide], 37 nM; under `COc1cc(NC(=O)C(=O)Nc2cccc(CNC(=O)Oc3ccccc3)c2)ccc1-c1cnco1` [Phenyl [3-[[[4-(5-oxazolyl)anilino]oxalyl]amino]benzyl]carbamate], 11 nM.
Compound `COc1cc(NC(=O)C(=O)Nc2cccc(CNC(=O)O[C@H]3CCOC3)c2)ccc1-c1cnco1` [[3-[[[3-Methoxy-4-(5-oxazolyl)anilino]oxalyl]amino]benzyl]carbamic acid tetrahydro-3(S)-furyl ester] had an IC50 of 44 nM.
In the case of `COc1cc(NC(=O)C(=O)NC(C)(C)CNC(=O)OC(C)(C)C)ccc1-c1cnco1` [tert-Butyl [2-[[[3-methoxy-4-(5-oxazolyl)anilino]oxalyl]amino]-2-methylpropyl]carbamate], the IC50 came to 75 nM.
`COc1cc(NC(=O)C(=O)Nc2cccc(CNC(=O)OC(C)(C)C)c2)ccc1-c1cnco1` [tert-Butyl [3-[[[3-methoxy-4-(5-oxazolyl)anilino]oxalyl]amino]benzyl]carbamate] returned a half-maximal inhibitory concentration (IC50) of 36 nM.
